Data published in patent US20200179510A1, “LOW DENSITY LIPOPROTEIN RECEPTOR RELATED PROTEIN 5 INHIBITION SUPPRESSES TUMOR FORMATION” (YALE UNIVERSITY, priority 2017, published 2020).

Legend:
[1] = system: Wnt reporter gene TOPFlash; test: Wnt reporter gene (TOPFlash) assay in HEK293 cells; format: cell-based; conditions: for Wnt reporter gene activity: DKK2 5 nM, Wnt3a 2 nM, CHIR 1 μM, 6 hrs (FIG. 10D)
Protocol: The Stat5 reporter assays were done in HEK293T cells for activated JAK1-induced activity or in those stably expressing JAK3, IL2/15Rβ and the common receptor γ subunit for IL15 induced activity. Cells were seeded at 8×10^4 cells per well in 48 well plate. The next day, cells were transfected by Lipofectamine 2000 (Invitrogen) with the pGL4.52-STAT5-Luciferase (Promega) and tagRFP (internal control) plasmids together with other plasmids expressing genes of interest. The total amount of plasmid was kept at 125 ng per well. The cells were added 24 hours after transfection with IL15/IL15Rα-Fc complex or mock. Six hours later, the cells were lysed and subjected to RFP fluorescence and luciferase luminescence measurement using an Envision Multilabel plate reader. The reporter gene activity is shown after being normalized against RFP readings. The LEF reporter assay was carried out in HEK293 cells that were transfected with the TOPFlash and GFP plasmids. The rest is the same as above. The reporter gene activity is shown after being normalized against GFP readings.
A functional mouse monoclonal anti-DKK2 antibody (5F8) was developed to specifically target and neutralize DKK2, but to not cross react with DKK-1. […] It has been shown that DKK2 as well as other DKK family proteins, inhibit canonical Wnt signaling by binding to Wnt co-receptor LRP 5/6 with high affinity and competing with Wnt molecules for receptor binding (MacDonald, B., et al., Dev Cell, 2009. 17(1): p. 9-26; Bao, J., et al., Sci Signal, 2012. 5(224): pe22). To determine if 5F8 diminished DKK2 inhibition of Wnt signaling, a Wnt reporter gene assay was used to measure Wnt activity. HEK293 cells were transfected with Wnt reporter gene TOPFlash and Wnt reporter activity was examined.

primary mouse NK cells = test: IL-15-cultured primary mouse NK cells (flow cytometry, Western); format: cell-based; conditions: for granzyme B in primary NK cells: WNT3a 2 nM, CHIR 1 μM
Protocol: Cells in single cell suspension were fixed with 2% PFA (Santa-Cruz sc-281692). After washing with a Flow Cytometry Staining Buffer (eBioscience 00-4222-26), cells were stained with antibodies for cell surface markers for 1 hour on ice in the dark. For staining of intracellular proteins, the cells were washed and resuspended in the Permeabilization Buffer (BD 554723) and stained by antibodies in the Permeabilization Buffer for 1 hour on ice in the dark. The cells were then pelleted and resuspended in the Flow Cytometry Staining Buffer for flow cytometry analysis.
Mouse primary NK and CD8+ T cells were isolated from the spleens by using the NK cell and CD8+ T cell isolation kits according to the manufacturer's instructions (Miltenyi Biotec #130-090-864 and #130-104-075), respectively. Primary NK cells were cultured in RPMI-1640 (Gibco, 11875-093) supplemented with 10% FBS, penicillin (100 U/ml), streptomycin (100 μg/ml), 2-mercaptoethanol (500 μM) and HEPES (10 mM) at 37° C. supplemented with 5% CO2 in the presence of recombinant murine IL-15 (50 ng/ml) for 24 hours before treatment with DKK2, CHIR99021, or WNT3A. CD8+ T cells were cultured in the same culture medium and condition as NK cells, but supplemented with IL-15 (200 ng/ml) and IL-15 Rα (1 μg/ml recombinant Mouse IL-15 receptor alpha Fc chimera Protein from R&D) for 96 hours before DKK2 treatment. Mouse primary intraepithelial lymphocytes (IELs) were prepared as described in (Little et al., The Journal of Immunology 175, 6713-6722 (2005) and Li et al. Infect Immun 80, 565-574 (2012)). In brief, the small intestine was everted, divided into four pieces, and washed twice in phosphate-buffered saline (PBS) containing 100 U/ml penicillin/streptomycin The specimens were then incubated with stirring at 37° C. in prewarmed Ca2+ and Mg2+-free Hanks' solution containing 100 U/ml penicillin-streptomycin, 5% fetal calf serum (FCS), 2 mM dithiothreitol (DTT), and 5 mM EDTA for 30 min, followed by vigorous shaking for 30 s. The supernatants were passed over two nylon wool columns to remove undigested tissue debris. The lymphocytes obtained were pooled and enriched on a discontinuous (40% and 70%) Percoll density gradient. Cells at the interface between the 40% and […], fractions (IELs) were collected for treatment with IL-15 (200 ng/ml) and DKK2 (200 ng/ml), followed by flow analysis.

Row | Molecule | Wnt reporter gene activity [1] | granzyme B in primary NK cells (primary mouse NK cells; 24 hours) | Wnt reporter activity ([1]; HEK293, TOPFlash, conditioned medium (FIG. 1E)) | β-catenin accumulation in LRP5-deficient NK cells (primary mouse NK cells; LRP5-deficiency) | β-catenin accumulation in LRP6-deficient NK cells (primary mouse NK cells; LRP6-deficient) | β-catenin accumulation in primary NK cells (primary mouse NK cells; WNT3A 5 nM, 24 hours, Western)
1 | Cc1c[nH]c(-c2cnc(NCCNc3ccc(C#N)cn3)nc2-c2ccc(Cl)cc2Cl)n1 [CHIR99021, reference compound] | strong effect on Wnt reporter gene activity | no significant effect on granzyme B |  |  |  | 
2 | WNT3A | a strong increase in the reporter gene activity | no significant effect on granzyme B expression | increased Wnt reporter activity | did not affect β-catenin accumulation | did not induce β-catenin accumulation | induced β-catenin accumulation
